Experimental data published in patent US20120316062A1 (priority 2009, published 2012).
Read-outs that look alike come from different tables or passages of the source.

What was measured:
Pyricularia oryzae = assay type: cell-based; details: single active, growth at 405 nm 7 days after inoculation, 18° C
Alternaria solani = test: Activity against Alternaria solani in the microtiterplate test; assay type: cell-based; details: single active, growth at 405 nm 7 days after inoculation, 18° C

`O=C(NC(=O)c1c(F)cccc1F)Nc1ccc(Oc2ccc(C(F)(F)F)cc2Cl)cc1F` [flufenoxuron] showed an Observed efficacy (Pyricularia oryzae; 1 ppm) of 6 and an Observed efficacy (Alternaria solani; 16 ppm) of 0.
Work on `COC(=O)N(OC)c1ccccc1COc1ccn(-c2ccc(Cl)cc2)n1` [pyraclostrobin] yielded an Observed efficacy (Pyricularia oryzae; 0.004 ppm) of 23 and an Observed efficacy (Alternaria solani; 0.063 ppm) of 56.
